Measurements as given in patent US20100204150A1, “USE OF A PEPTIDE AS A THERAPEUTIC AGENT” (priority 2007, published 2010).
Where no end group is shown, it is not given here. [ ]: non-standard residue; d: D form.

Assays:
HIV-1IIIB = assay: HIV-1 antiviral assay in CEM-SS cells (MTS readout)
Interferon-γ (IFN-γ) = assay: Th1/Th2 cytokine profiling assay: IFN-γ; assay type: cell-based, mouse; conditions: 10 micrograms per ml; Ovalbumin-restimulated murine spleen cells; 72 hours
Experimental: (§1) On day 50, spleens of the mice were harvested (3 weeks after last boost with Ovalbumin). Cells were cultured (2×10^5/well in triplicate) and incubated with culture medium or test peptides—10 micrograms per ml—for 30 min. […] This kit can be used to measure Interleukin-2 (IL-2), Interleukin-4 (IL-4), Interleukin-5 (IL-5), Interferon-γ (IFN-γ), and Tumor Necrosis Factor-a (TNF-a) protein levels in a single sample. The kit performance has been optimized for analysis of physiologically relevant concentrations (μg/ml levels) of specific cytokine proteins in tissue culture supernatants and serum samples.

[1] = tested on: Primary Human endothelial cells (HUVEC); assay: Endothelial cell migration assay; assay type: cell-based; conditions: 10 micrograms per ml, 22 hours
Experimental: Thereafter, designated concentration of testing peptides was added in duplicate wells.

Interleukin-4 (IL-4) = assay: Th1/Th2 cytokine profiling assay: IL-4; assay type: cell-based, mouse; conditions: 10 micrograms per ml; Ovalbumin-restimulated murine spleen cells; 72 hours
Experimental: as §1

Interleukin-5 (IL-5) = assay: Th1/Th2 cytokine profiling assay: IL-5; assay type: cell-based, mouse; conditions: 10 micrograms per ml; Ovalbumin-restimulated murine spleen cells; 72 hours
Experimental: as §1

[2] = tested on: hepatitis B virus (HBV) ayw strain; assay: HBV assay in HepG2-2.2.15 cells (secreted HBV DNA, TaqMan PCR); assay type: cell-based; conditions: 10 micrograms per ml, six days, combination 0.95 mole peptide 1 and 1.05 mole peptide 2
Source text: HepG2-2.2.15 is a stable cell line containing the hepatitis B virus (HBV) ayw strain genome (ATCC Cat. No. CRL-11997). Antiviral compounds blocking any late step of viral replication such as transcription, translation, pregenome encapsidation, reverse transcription, particle assembly and release can be identified and characterized using this cell line. In this assay, an active compound will reduce the production of secreted HBV from cells, measured by utilizing real time quantitative PCR (TaqMan) assay to directly and accurately measure HBV DNA copies.
HepG2-2.2.15 cells were plated in 96-well microtiter plates. After 16-24 hours the confluent monolayer of HepG2-2.2.15 cells was washed and the medium was replaced with complete medium containing test peptides—10 micrograms per ml—in duplicate. […] Six days following the initial administration of the peptides, the cell culture supernatants was collected, treated with pronase and DNAse and then used in a real-time quantitative TaqMan PCR assay. The PCR-amplified HBV DNA was detected in real-time by monitoring increases in fluorescence signals that result from the exonucleolytic degradation of a quenched fluorescence probe molecule that hybridizes to the amplified HBV DNA. […] Antiviral activity was calculated from the reduction in HBV DNA levels (% virus control). […]

HCMV strain AD169 = assay: HCMV plaque formation assay in MRC-5 cells; conditions: 10 micrograms per ml, 7-10 days
[3] = tested on: Tumor Necrosis Factor-a (TNF-a); assay: Th1/Th2 cytokine profiling assay: TNF-alpha; assay type: cell-based, mouse; conditions: 10 micrograms per ml; Ovalbumin-restimulated murine spleen cells; 72 hours
Experimental: as §1

Interleukin-2 (IL-2) = assay: Th1/Th2 cytokine profiling assay: IL-2; assay type: cell-based, mouse; conditions: 10 micrograms per ml; Ovalbumin-restimulated murine spleen cells; 72 hours
Experimental: as §1

HUVEC = assay: Endothelial tube formation assay; assay type: cell-based, human; conditions: 10 micrograms per ml, 20 hours
Source text: Positive control was vehicle only.

## Cc1cn([C@H]2C[C@H](N=[N+]=[N-])[C@@H](CO)O2)c(=O)[nH]c1=O [AZT]
HIV-1IIIB
  antiviral activity of positive control compounds (HIV-1): expected levels of antiviral activity

## CC(C)(C)NC(=O)[C@@H]1CN(Cc2cccnc2)CCN1C[C@@H](O)C[C@@H](Cc1ccccc1)C(=O)N[C@H]1c2ccccc2C[C@H]1O [indinavir]
HIV-1IIIB
  antiviral activity of positive control compounds (HIV-1): expected levels of antiviral activity

## Ac-Arg-Phe-Met-Trp-Met-Arg-NH2 (Ac-RFMWMR-NH2) [Peptide 2]
Interferon-γ (IFN-γ)
  increase of the production of IFN-γ: 118.6%
[1]
  increase of the migration of endothelial cells: 15%
Interleukin-4 (IL-4)
  increase of the production of IL-4: 56.2%
Interleukin-5 (IL-5)
  change of the production of IL-5: did not significantly change
[2]
  inhibition of HBV replication as compared to the virus control infection: 26.3%
HCMV strain AD169
  inhibition of HCMV plaque formation as compared to the virus control experiment: 2.9%
[3]
  change of the production of TNF-alpha: did not significantly change
Interleukin-2 (IL-2)
  increase of the production of IL-2: 56.5%
HUVEC
  increase of the tube formation of human endothelial cells: 4%

## HPFHL[dL]VY-OH [Peptide 1]
Interferon-γ (IFN-γ)
  decrease of the production of IFN-γ: 43.3%
[1]
  inhibition of the migration of human endothelial cells: 26%
Interleukin-4 (IL-4)
  change of the production of IL-4: did not significantly change
Interleukin-5 (IL-5)
  decrease of the production of IL-5: 34.5%
[2]
  inhibition of HBV replication as compared to the virus control infection: 24.3%
HCMV strain AD169
  inhibition of HCMV plaque formation as compared to the virus control experiment: did not inhibit
[3]
  change of the production of TNF-alpha: did not significantly change
Interleukin-2 (IL-2)
  increase of the production of IL-2: 82.1%
HUVEC
  increase of the tube formation of human endothelial cells: 2%
